Test results from publication PMC11460631, “Inhibition of transient receptor potential vanilloid 3 channels by antimalarial hydroxychloroquine alleviates TRPV3-dependent dermatitis” (The Journal of Biological Chemistry, 2024).
Numbering of substitutions follows the chain as printed.

Experiments:
[1] = target: T1, TRPV3 F633 alanine mutation (Homo sapiens, UniProt Q8NET8, F633A); assay: Whole-cell recording of TRPV3 F633 alanine mutant; assay type: cell-based; conditions: 1 mM 2-APB, ± 80 mV
T1 construct: YFP or GFP; expressed in transfected cells; host or cells: HEK293T
T1 sequence (Q8NET8 1-790 F633A): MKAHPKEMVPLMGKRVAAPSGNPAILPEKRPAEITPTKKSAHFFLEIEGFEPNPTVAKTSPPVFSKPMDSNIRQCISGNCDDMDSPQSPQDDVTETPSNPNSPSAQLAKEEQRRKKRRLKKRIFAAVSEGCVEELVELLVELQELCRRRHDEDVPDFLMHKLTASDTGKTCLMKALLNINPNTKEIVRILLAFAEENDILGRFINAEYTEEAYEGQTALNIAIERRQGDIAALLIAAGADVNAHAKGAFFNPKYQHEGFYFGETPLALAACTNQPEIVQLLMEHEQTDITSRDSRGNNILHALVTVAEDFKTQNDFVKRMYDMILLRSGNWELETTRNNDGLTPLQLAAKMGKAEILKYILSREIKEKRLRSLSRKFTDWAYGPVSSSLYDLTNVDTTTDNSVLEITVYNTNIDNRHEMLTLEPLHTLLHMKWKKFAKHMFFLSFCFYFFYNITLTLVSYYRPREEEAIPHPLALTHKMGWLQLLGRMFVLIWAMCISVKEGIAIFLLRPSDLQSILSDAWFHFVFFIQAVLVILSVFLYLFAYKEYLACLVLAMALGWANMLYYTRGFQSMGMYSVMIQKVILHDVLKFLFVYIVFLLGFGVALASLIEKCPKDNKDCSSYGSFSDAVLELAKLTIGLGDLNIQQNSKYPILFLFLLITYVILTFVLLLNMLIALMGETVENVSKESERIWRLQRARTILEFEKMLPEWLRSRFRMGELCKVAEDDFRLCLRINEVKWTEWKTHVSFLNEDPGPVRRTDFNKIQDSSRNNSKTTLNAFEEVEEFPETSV
Text: (§1) As we mentioned above, HCQ may act as a pore blocker of TRPV3. To probe the binding configuration of HCQ to TRPV3, we carried out molecular docking using Rosetta suite (https://rosettacommons.org) ([21]) and validated the docking models with point mutations in TRPV3 (Fig. 4A). […] Furthermore, when we introduced L670A to L591A mutant, we also observed a left shift on the concentration–response curve on this double mutant as compared to L591A mutant (Fig. 4H).
(§2) Figure 4 Residues of the pore domain are critical for HCQ inhibition on TRPV3.A, left panel, docking model of HCQ to the pore domain of TRPV3 structure (6uw4). Right panels, top view and side view of the HCQ-binding pocket. B-J, representative whole-cell recording of TRPV3 and mutants in response to 1 mM 2-APB, the mixture of 1 mM 2-APB and concentration gradients of HCQ with the holding potential of ± 80 mV. K, concentration–response curves of HCQ in WT TRPV3 and mutants (n = 3–5 cells). L, quantification of the inhibitory ratio of HCQ (100 μM) on WT, L591A, and N671Q. […]
(§3) All data from whole-cell recordings were analyzed in Igor Pro (WaveMetrics). IC50 values were determined by fitting the Hill equation to concentration-response relationships. […]

TRPV3 Y594F mutation = target: T2, TRPV3 Y594F mutation (Homo sapiens, UniProt Q8NET8, Y594F); assay: Whole-cell recording of TRPV3 Y594F mutant; assay type: cell-based; conditions: 1 mM 2-APB, ± 80 mV
T2 construct: YFP or GFP; expressed in transfected cells; host or cells: HEK293T
T2 sequence (Q8NET8 1-790 Y594F): T1 sequence (Q8NET8 1-790 F633A) with Y594F, A633F
Text: as §1, §2, §3

CCN(CCO)CCCC(C)Nc1ccnc2cc(Cl)ccc12 (centres unmarked) [HCQ, hydroxychloroquine]
IC50 [1]: 140 ± 10 nM | IC50 (TRPV3 Y594F mutation): 34.8 ± 1.59 µM
